Experimental data from patent publication US20190134005A1 (BioMarin Pharmaceutical Inc., priority 2016, published 2019).
Where two headings read alike, the source gives them in different places.

Molecular target: T1, human CGT (Homo sapiens, UniProt Q16880)
T1 sequence (Q16880 21-541): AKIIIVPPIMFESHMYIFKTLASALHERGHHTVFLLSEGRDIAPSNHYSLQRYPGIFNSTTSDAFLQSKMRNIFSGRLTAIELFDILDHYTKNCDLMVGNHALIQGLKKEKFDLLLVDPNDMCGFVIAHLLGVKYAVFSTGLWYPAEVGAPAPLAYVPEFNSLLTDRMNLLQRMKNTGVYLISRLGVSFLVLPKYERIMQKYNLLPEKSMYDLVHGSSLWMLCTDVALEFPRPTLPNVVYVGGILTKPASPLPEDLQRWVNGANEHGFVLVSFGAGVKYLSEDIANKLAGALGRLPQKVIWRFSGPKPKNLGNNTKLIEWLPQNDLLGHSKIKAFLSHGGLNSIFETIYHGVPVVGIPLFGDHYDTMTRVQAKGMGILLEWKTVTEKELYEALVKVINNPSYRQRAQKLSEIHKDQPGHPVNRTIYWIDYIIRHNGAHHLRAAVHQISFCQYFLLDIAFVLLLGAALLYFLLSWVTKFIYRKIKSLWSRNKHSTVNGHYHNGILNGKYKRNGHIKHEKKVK
Assay: Assay 1: CGT Enzymatic Assay (RapidFire/MS/MS, 0.01% Tween 80)
Assay type: biochemical
Settings: Table 1, Compounds of Formula (I) and Formula (II), CGT enzymatic assay, read-out: IC50

[1] = C6-NBD-dihydro-galactosylceramide readout

Row | Structure (SMILES) | IC50 [1] | IC50
1 | Cc1ccc(N2C(=O)N(c3ccc(C)cc3)C(O)(c3cccc(C(C)(F)F)c3)C23COC3)cc1 (centres unmarked) [Compound 286, 8-(3-(1,1-difluoroethyl)phenyl)-8-hydroxy-5,7-di-p-tolyl-2-oxa-5,7-diazaspiro[3.4]octan-6-one] | < 1000 nM | 
2 | CCCCCCC1(O)C(=O)N(c2ccc(Br)cc2)C(=O)N1c1ccc(Br)cc1 (centres unmarked) [Example 157, 1,3-bis(4-bromophenyl)-5-hexyl-5-hydroxyimidazolidine-2,4-dione] |  | 50000 to 100000 nM
3 | N#Cc1cccc(C2(O)C(C3CCC3)N(c3ccc(Cl)cc3)C(=O)N2c2ccc(Cl)cc2)c1 (centres unmarked) [Example 194, 3-(1,3-bis(4-chlorophenyl)-5-cyclobutyl-4-hydroxy-2-oxoimidazolidin-4-yl)benzonitrile] |  | < 1000 nM
4 | CCC1N(c2ccc(Br)cc2)C(=O)N(c2ccc(Br)cc2)C1(O)c1cccc(OC(F)(F)F)c1 (centres unmarked) [Compound 83, 1,3-bis(4-bromophenyl)-5-ethyl-4-hydroxy-4-(3-(trifluoromethoxy)phenyl)imidazolidin-2-one] |  | < 1000 nM
5 | CCCC1N(c2ccc(Br)cc2)C(=O)N(c2ccc(Br)cc2)C1(O)c1cccc(C)c1 (centres unmarked) [Compound 96, 1,3-bis(4-bromophenyl)-4-hydroxy-5-propyl-4-(m-tolyl)imidazolidin-2-one] |  | < 1000 nM
6 | O=C1N(c2ccc(Br)cc2)CC(O)(c2ccc3ccccc3c2)N1c1ccc(Br)cc1 (centres unmarked) [Example 24, 1,3-bis(4-bromophenyl)-4-hydroxy-4-(naphthalen-2-yl)imidazolidin-2-one] |  | > 50000 nM
7 | CC[C@@H]1N(c2ccc(Br)cc2)C(=O)N(c2ccc(Br)cc2)C1(O)c1ccccc1 (some centres unmarked) [Example 25-1] |  | < 1000 nM
8 | CCCc1c(-c2cccc(Cl)c2)n(-c2ccc(Br)cc2)c(=O)n1-c1ccc(Br)cc1 [Compound 250, 1,3-bis(4-bromophenyl)-4-(3-chlorophenyl)-5-propyl-1,3-dihydro-2H-imidazol-2-one] |  | < 1000 nM
9 | Cc1ccc(C2(O)CN(c3ccc(Br)cc3)C(=O)N2c2ccc(Br)cc2)cc1 (centres unmarked) [Example 23, 1,3-bis(4-bromophenyl)-4-hydroxy-4-(p-tolyl)imidazolidin-2-one] |  | > 50000 nM
10 | O=C1N(c2ccc(Br)cc2)C(=O)C(O)(c2ccc3ccccc3c2)N1c1ccc(Br)cc1 (centres unmarked) [Compound 148, 1,3-bis(4-bromophenyl)-5-hydroxy-5-(naphthalen-2-yl)imidazolidine-2,4-dione] |  | 50000 to 100000 nM
11 | N#Cc1cc(Cl)cc(-c2cn(-c3ccc(Cl)cc3)c(=O)n2-c2ccc(Cl)cc2)c1 [Compound 265, 3-(1,3-bis(4-chlorophenyl)-2-oxo-2,3-dihydro-1H-imidazol-4-yl)-5-chlorobenzonitrile] |  | > 50000 nM
12 | CC(C)c1ccc(N2C(=O)N(c3ccc(C(C)C)cc3)C(O)(c3ccccc3)C2=O)cc1 (centres unmarked) [Compound 145, 5-hydroxy-1,3-bis(4-isopropylphenyl)-5-phenylimidazolidine-2,4-dione] |  | 50000 to 100000 nM
13 | CC1N(c2ccc(Cl)cc2)C(=O)N(c2ccc(Cl)cc2)C1(O)c1cccc(OC(F)(F)F)c1 (centres unmarked) [Compound 129, 1,3-bis(4-chlorophenyl)-4-hydroxy-5-methyl-4-(3-(trifluoromethoxy)phenyl)imidazolidin-2-one] |  | < 1000 nM
14 | Cc1ccc(N2C(=O)N(c3ccc(Cl)cc3)C(O)(c3cccc(C#N)c3)C23CCC3)cc1 (centres unmarked) [Example 316, 3-(7-(4-chlorophenyl)-8-hydroxy-6-oxo-5-(p-tolyl)-5,7-diazaspiro[3.4]octan-8-yl)benzonitrile] | < 1000 nM | 
15 | CCCCC1(O)CN(c2ccc(Br)cc2)C(=O)N1c1ccc(Br)cc1 (centres unmarked) [Example 6, 1,3-bis(4-bromophenyl)-4-butyl-4-hydroxyimidazolidin-2-one] |  | > 50000 nM
16 | O=C1N(c2ccc(Cl)cc2)C2(CC2)C(O)(c2cccc(Cl)c2)N1c1ccc(Cl)cc1 (centres unmarked) [Example 228, 7-(3-chlorophenyl)-4,6-bis(4-chlorophenyl)-7-hydroxy-4,6-diazaspiro[24]heptan-5-one] |  | < 1000 nM
17 | Cc1ccc(N2C(=O)N(c3ccc(C#N)cc3)C(O)(c3cccc(OC(F)(F)F)c3)C23COC3)cc1 (centres unmarked) [Example 307, 4-(8-hydroxy-6-oxo-5-(p-tolyl)-8-(3-(trifluoromethoxy)phenyl)-2-oxa-5,7-diazaspiro[3.4]octan-7-yl)benzonitrile] | < 1000 nM | 
18 | CCc1ccc(N2C(=O)N(c3ccc(CC)cc3)C(O)(c3cccc(C#N)c3)C2C)cc1 (centres unmarked) [Compound 104, 3-(1,3-bis(4-ethylphenyl)-4-hydroxy-5-methyl-2-oxoimidazolidin-4-yl)benzonitrile] |  | < 1000 nM
19 | N#Cc1ccc(N2C(=O)N(c3ccc(Cl)cc3)C(O)(c3cccc(OC(F)(F)F)c3)C23COC3)cc1 (centres unmarked) [Compound 276, 4-(7-(4-chlorophenyl)-8-hydroxy-6-oxo-8-(3-(trifluoromethoxy)phenyl)-2-oxa-5,7-diazaspiro[3.4]octan-5-yl)benzonitrile] | < 1000 nM | 
20 | O=c1n(-c2ccc(Br)cc2)c2c(n1-c1ccc(Br)cc1)CCCC2 [Example 18] |  | 10000 to 50000 nM

More lines, now with the values ahead:

Row | IC50 [1] | IC50 | Structure (SMILES)
21 |  | < 1000 nM | CCC[C@@H]1N(c2ccc(Cl)cc2)C(=O)N(c2ccc(Cl)cc2)C1(O)c1cccc(C#N)c1 (single isomer, unassigned) [Compound 101-1]
22 |  | < 1000 nM | CC[C@@H]1N(c2ccc(Cl)cc2)C(=O)N(c2ccc(Cl)cc2)C1(O)c1cccc(OC(F)F)c1 (stereo partly drawn) [Compound 118-1, (5S)-1,3-bis(4-chlorophenyl)-4-(3-(difluoromethoxy)phenyl)-5-ethyl-4-hydroxyimidazolidin-2-one]
23 |  | < 1000 nM | CCC[C@@H]1N(c2ccc(Br)cc2)C(=O)N(c2ccc(Br)cc2)C1(O)c1cccc(Cl)c1 (stereo partly drawn) [Compound 119-1, (5S)-1,3-bis(4-bromophenyl)-4-(3-chlorophenyl)-4-hydroxy-5-propylimidazolidin-2-one]
24 |  | < 1000 nM | N#Cc1cccc(C2(O)[C@H](C3CCC3)N(c3ccc(Cl)cc3)C(=O)N2c2ccc(Cl)cc2)c1 (stereo partly drawn) [Example 194-1, 3-((5S)-1,3-bis(4-chlorophenyl)-5-cyclobutyl-4-hydroxy-2-oxoimidazolidin-4-yl)benzonitrile]
25 |  | < 1000 nM | C[C@@H]1N(c2ccc(C#N)cc2)C(=O)N(c2ccc(C#N)cc2)C1(O)c1cccc(OC(F)(F)F)c1 (stereo partly drawn) [Example 180-1, 4,4′-((5S)-4-hydroxy-5-methyl-2-oxo-4-(3-(trifluoromethoxy)phenyl)imidazolidine-1,3-diyl)dibenzonitrile]
26 |  | 10000 to 50000 nM | O=C1N(c2ccc(Cl)cc2)[C@H](c2ccccc2)[C@](O)(CO)N1c1ccc(Cl)cc1 [Example 218-1, (4S,5R)-1,3-bis(4-chlorophenyl)-4-hydroxy-4-(hydroxymethyl)-5-phenylimidazolidin-2-one]
27 |  | < 1000 nM | CCC1N(c2ccc(Cl)cc2)C(=O)N(c2ccc(Cl)cc2)C1(O)c1cccc(OC(F)(F)F)c1 (stereo in doubt) [Compound 82-2, (5R)-1,3-bis(4-chlorophenyl)-5-ethyl-4-hydroxy-4-(3-(trifluoromethoxy)phenyl)imidazolidin-2-one]
28 |  | < 1000 nM | COc1cccc(C2(O)[C@@H](C)N(c3ccc(Br)cc3)C(=O)N2c2ccc(Br)cc2)c1 (stereo partly drawn) [Compound 71-2, (5R)-1,3-bis(4-bromophenyl)-4-hydroxy-4-(3-methoxyphenyl)-5-methylimidazolidin-2-one]
29 |  | < 1000 nM | COc1cccc([C@]2(C)C(O)N(c3ccc(Br)cc3)C(=O)N2c2ccc(Br)cc2)c1 (single isomer, unassigned) [Compound 126-2]
